# ChEMBL document CHEMBL1201862, “PubChem BioAssay data set” (2004)
# The source made the active and inactive calls.
# Columns and labels:
# [1] = Trypanosoma cruzi growth suppression in host cells – NIH3T3 host cells, beta-gal luminescence, confirmation (AID 2044); format: functional, cell-based;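 also: intracellular parasites grown in NIH/3T3 mouse fibroblasts as host cells; luminescent beta-galactosidase reporter signal from transgenic T. cruzi replicating inside host cells; inhibitors lower the luminescence signal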
# [2] = NIH3T3 cell viability loss – ATP luminescence, mouse fibroblasts, counter-screen, dose response (AID 2010); format: functional, cell-based;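 also: cells exposed to compound for about 90 hours before reading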
# [3] = target: Neurotensin receptor type 1 (Homo sapiens, UniProt P30989); format: functional;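 also: Image-based confirmatory dose-response assay measuring agonist activity at NTR1; NTR1-expressing U2OS osteosarcoma cells imaged for beta-arrestin GFP spot formation; agonist potency where compounds increase beta-arrestin recruitment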
# INS1 = assay: INS-1E survival protection against cytokine death – cell-based, luminescence, retest, dose response (AID 449756); format: functional; conditions: Rattus norvegicus;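 also: cell death triggered by IL-1 beta plus TNF-alpha plus IFN-gamma mixture; protective hits raise ATP signal compared with cytokine alone wells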
# Melanocortin receptor 4 = Melanocortin receptor 4 (Homo sapiens, UniProt P32245); format: functional, cell-based;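 also: Cell-based assay with luminescence read-out, confirmatory dose-response testing for agonist activity of biased ligands at MC4R; human U2OS cells with tagged receptor and beta-arrestin; potency of agonists that increase receptor coupling to beta-arrestin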
# [4] = cytotoxicity toward MDA-MB-231 breast cancer cells – cell-based, CellTiter-Glo luminescence, cherry-pick, cytotoxicity control for RAD54 inhibitor project, dose response (AID 651692); format: functional
# [5] = target: T1, DNA repair and recombination protein RAD54-like (Homo sapiens, UniProt Q92698); assay: RAD54 Holliday junction migration blockers – biochemical, fluorescence, cherry-picked samples, dose series, confirmation (AID 651657); format: functional
# T1 sequence (Q92698 whole entry): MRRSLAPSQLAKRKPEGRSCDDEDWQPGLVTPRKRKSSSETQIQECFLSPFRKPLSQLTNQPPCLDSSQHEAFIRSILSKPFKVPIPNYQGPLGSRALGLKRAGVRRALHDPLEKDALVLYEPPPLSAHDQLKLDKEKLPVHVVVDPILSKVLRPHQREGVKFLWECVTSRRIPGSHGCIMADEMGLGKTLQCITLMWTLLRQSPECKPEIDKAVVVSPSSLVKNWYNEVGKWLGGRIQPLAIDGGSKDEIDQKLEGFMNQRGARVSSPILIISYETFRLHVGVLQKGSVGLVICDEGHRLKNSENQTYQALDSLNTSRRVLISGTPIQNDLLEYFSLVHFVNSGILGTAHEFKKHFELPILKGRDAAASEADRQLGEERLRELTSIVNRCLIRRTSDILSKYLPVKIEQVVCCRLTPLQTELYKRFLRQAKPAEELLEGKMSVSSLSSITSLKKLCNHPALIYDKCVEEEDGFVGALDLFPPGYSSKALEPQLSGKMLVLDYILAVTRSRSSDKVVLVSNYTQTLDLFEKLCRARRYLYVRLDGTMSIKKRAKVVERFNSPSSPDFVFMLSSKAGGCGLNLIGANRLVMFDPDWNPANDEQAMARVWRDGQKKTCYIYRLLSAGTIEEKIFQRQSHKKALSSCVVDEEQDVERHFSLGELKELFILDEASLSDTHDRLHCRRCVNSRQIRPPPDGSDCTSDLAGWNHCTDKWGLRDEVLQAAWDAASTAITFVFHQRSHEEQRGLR
# [6] = general mammalian cell viability loss – activator set, cherry-pick, cytotoxicity control for miR-122 modulator project, dose response (AID 720690); format: functional, cell-based;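 also: HEK293T human cells scored for general mammalian cytotoxicity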
# [7] = target: T2, RNA-binding protein pos-1 (Caenorhabditis elegans, UniProt G5EF15); assay: disruptors of C. elegans POS-1 RNA interaction – biochemical, fluorescence polarization, dose response (AID 1964);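 also: purified POS-1 fused to maltose binding protein made in E. coli; potency of compounds blocking POS-1 binding to fluorescent RNA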
# T2 sequence (G5EF15 whole entry): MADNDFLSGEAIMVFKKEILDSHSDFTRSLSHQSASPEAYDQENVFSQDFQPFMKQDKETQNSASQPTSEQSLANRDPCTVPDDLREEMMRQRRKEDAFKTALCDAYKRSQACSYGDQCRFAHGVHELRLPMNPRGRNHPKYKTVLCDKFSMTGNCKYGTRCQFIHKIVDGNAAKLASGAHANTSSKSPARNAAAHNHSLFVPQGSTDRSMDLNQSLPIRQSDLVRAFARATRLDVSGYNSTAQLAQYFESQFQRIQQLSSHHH
# Aspartyl aminopeptidase = Aspartyl aminopeptidase (Plasmodium falciparum 3D7, UniProt Q8I2J3)
# cells [8] = format: functional, cell-based
# Procathepsin L = Procathepsin L (Homo sapiens, UniProt P07711)
# [9] = target: T3, Zinc finger protein mex-5 (Caenorhabditis elegans, UniProt Q9XUB2); assay: potency of MEX-5 RNA-binding blockers – biochemical, C. elegans, fluorescence polarization, dose response (AID 1960)
# T3 sequence (Q9XUB2 whole entry): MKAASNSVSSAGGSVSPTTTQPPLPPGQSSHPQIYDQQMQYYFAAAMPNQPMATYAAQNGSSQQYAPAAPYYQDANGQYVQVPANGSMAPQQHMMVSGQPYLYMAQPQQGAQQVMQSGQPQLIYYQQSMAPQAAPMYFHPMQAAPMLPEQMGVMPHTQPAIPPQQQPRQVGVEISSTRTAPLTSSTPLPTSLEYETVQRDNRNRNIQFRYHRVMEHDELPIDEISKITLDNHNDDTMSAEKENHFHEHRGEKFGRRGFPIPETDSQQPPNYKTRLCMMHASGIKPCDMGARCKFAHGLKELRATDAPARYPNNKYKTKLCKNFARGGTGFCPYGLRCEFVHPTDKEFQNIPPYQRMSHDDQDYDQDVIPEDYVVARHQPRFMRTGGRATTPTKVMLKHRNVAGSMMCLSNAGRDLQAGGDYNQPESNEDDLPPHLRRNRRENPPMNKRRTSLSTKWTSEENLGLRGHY
# Large T antigen = Large T antigen (Simian virus 40, UniProt P03070); format: functional, Betapolyomavirus macacae;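 also: Confirmatory-stage PubChem screen for compounds that inhibit SV40 T antigen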
# cells [10] = format: functional, cell-based; remark: listed apart in the source
# [11] = target: FAD-linked sulfhydryl oxidase ALR (Homo sapiens, UniProt P55789); assay: ALR-catalysed DTT oxidation blockers – biochemical, H2O2 detection, luminescence, cherry-pick, dose response (AID 493248)
# Mu-type opioid receptor = Mu-type opioid receptor (Homo sapiens, UniProt P35372); format: functional, cell-based;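 also: U2OS cells with beta-arrestin recruitment to OPRM1 by beta-gal complementation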
# [12] = target: 5-hydroxytryptamine receptor 2A (Mus musculus, UniProt P35363); format: functional, cell-based;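 also: CHO-K1 cells with tagged receptor and beta-arrestin; agonist potency measured as compound-induced activation of the receptor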
# Bcl-2-like protein 10 = Bcl-2-like protein 10 (Homo sapiens, UniProt Q9HD36); assay: Bcl-B/TR3 peptide binding disruption – biochemical, fluorescence polarization, FITC-TR3 peptide, selectivity assay for Bfl-1 inhibitor project, primary screen (AID 748);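 also: fluorescence polarization from a fluorescein-labelled TR3 peptide binding purified Bcl-B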
# Estrogen receptor beta [13] = target: T4, Estrogen receptor beta (Homo sapiens, UniProt Q92731);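 also: recombinant ER-beta bound to coactivator SRC1 peptide in presence of estradiol agonist; inhibitors block coactivator peptide binding and lower the FRET signal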
# Estrogen receptor beta [14] = target: T4, Estrogen receptor beta; assay: blockers of SRC-3 recruitment to ERβ – biochemical, ELISA, streptavidin-HRP readout, orthogonal assay, confirmation (AID 1060)
# [15] = test system: Streptococcus sp. 'group A'; assay: Streptococcus pyogenes SK(-)GAS viability under kanamycin – luminescence, BacTiterGlo, confirmation, counter-screen for streptokinase expression inhibitor project, dose response (AID 1900); format: functional, organism-based
# Streptokinase A = target: T5, Streptokinase A (Streptococcus pyogenes serotype M1, UniProt P10520); assay: viability-normalized secreted streptokinase activity reduction – plasminogen activation absorbance, OD405, dose response (AID 1914); format: functional, Streptococcus pyogenes M1 GAS;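 also: secreted streptokinase activity via plasminogen activation per viability signal from cell pellet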
# T5 sequence (P10520 whole entry): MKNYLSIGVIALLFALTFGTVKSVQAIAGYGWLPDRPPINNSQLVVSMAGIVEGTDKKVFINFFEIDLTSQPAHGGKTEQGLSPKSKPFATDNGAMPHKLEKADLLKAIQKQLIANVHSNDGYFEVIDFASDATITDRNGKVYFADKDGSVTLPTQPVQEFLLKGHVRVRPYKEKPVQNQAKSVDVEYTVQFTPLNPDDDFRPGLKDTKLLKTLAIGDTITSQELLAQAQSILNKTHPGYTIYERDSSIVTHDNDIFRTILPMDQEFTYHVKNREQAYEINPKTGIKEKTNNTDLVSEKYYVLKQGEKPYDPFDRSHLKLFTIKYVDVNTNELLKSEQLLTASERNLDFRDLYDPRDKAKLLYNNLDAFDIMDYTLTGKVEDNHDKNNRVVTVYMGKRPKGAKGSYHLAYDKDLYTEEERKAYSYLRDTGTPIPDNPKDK
# [16] = viability of PTEN-deleted HCT116 cells – cell-based, HCT116 PTEN knockout, dose response (AID 1047); format: functional;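 also: HCT116 colon tumor cells with PTEN knocked out; cells exposed to compound for 60 hours before readout; potency for loss of cell viability measured by luminescence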
# [17] = viability of HCT116 lacking mutant beta-catenin – cell-based, human colon tumor, dose response (AID 1045); format: functional;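 also: HCT116 colon tumor cells with beta catenin knocked out; cells exposed to compound for 60 hours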
# Streptococcus = assay: GAS UMAA2166 growth inhibition – luminescence, BacTiterGlo, counter-screen for streptokinase expression inhibitor project, dose response (AID 1915); format: functional, organism-based;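 also: potency for reduction of bacterial viability or growth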
# [18] = target: Scavenger receptor class B member 1 (Mus musculus, UniProt Q61009); assay: mouse SR-BI DiI-HDL uptake blockers – ldlA[mSR-BI] cells, fluorescence, cherry pick, dose response (AID 493194); format: functional, cell-based;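 also: cellular uptake of fluorescent DiI-labeled HDL measured as cell fluorescence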
# HeLa = assay: viability loss in HeLa cells – cell-based, 24 h, cherry-picked samples, cytotoxicity control, dose response (AID 504726); format: functional; conditions: Homo sapiens;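 also: potency for cytotoxicity as loss of luminescence signal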
# [19] = target: Eukaryotic translation initiation factor 4H (Homo sapiens, UniProt Q15056); assay: eIF4H binding inhibition – biochemical, uHTS, fluorescence polarization, translation initiation inhibitor project, primary screen (AID 2012)
# [20] = target: Polyadenylate-binding protein 1 (Homo sapiens, UniProt P11940); assay: blockers of PABP interaction with poly(A) – biochemical, fluorescence polarization, […] (AID 2014)
# [21] = target: Neuropeptides B/W receptor type 1 (Homo sapiens, UniProt P48145); assay: Fluorescence-based dose response cell-based high throughput screening assay to identify antagonists of the G-protein coupled receptor 7 (GPR7). [Related pubchem assays: 1952 (Screening assay (GPR7 antagonists).), 1880 (Summary AID.)]; format: functional
# [22] = target: Melanin-concentrating hormone receptor 1 (Homo sapiens, UniProt Q99705); assay: Fluorescence-based counterscreen for antagonists of the G-protein coupled receptor 7 (GPR7): cell-based high throughput dose response assay to identify antagonists of the melanin-concentrating hormone receptor 1 (MCHR1).; format: functional
# [23] = target: T6, Tyrosine-protein phosphatase non-receptor type 7 (Homo sapiens, UniProt P35236); format: functional
# T6 sequence (P35236 whole entry): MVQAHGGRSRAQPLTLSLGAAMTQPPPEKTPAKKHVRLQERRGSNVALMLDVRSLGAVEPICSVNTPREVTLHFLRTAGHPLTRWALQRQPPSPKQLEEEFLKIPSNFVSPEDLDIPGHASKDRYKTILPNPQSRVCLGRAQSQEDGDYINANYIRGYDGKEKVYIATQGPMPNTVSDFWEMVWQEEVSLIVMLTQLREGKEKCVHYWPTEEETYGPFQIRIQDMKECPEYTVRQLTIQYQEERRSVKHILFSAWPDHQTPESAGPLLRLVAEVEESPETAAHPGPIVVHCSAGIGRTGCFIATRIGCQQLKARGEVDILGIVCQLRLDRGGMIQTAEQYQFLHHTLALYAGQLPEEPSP
# [24] = target: Glyceraldehyde-3-phosphate dehydrogenase (Homo sapiens, UniProt P04406)
# [25] = target: T7, Dual specificity protein phosphatase 6 (Rattus norvegicus, UniProt Q64346)
# T7 sequence (Q64346 whole entry): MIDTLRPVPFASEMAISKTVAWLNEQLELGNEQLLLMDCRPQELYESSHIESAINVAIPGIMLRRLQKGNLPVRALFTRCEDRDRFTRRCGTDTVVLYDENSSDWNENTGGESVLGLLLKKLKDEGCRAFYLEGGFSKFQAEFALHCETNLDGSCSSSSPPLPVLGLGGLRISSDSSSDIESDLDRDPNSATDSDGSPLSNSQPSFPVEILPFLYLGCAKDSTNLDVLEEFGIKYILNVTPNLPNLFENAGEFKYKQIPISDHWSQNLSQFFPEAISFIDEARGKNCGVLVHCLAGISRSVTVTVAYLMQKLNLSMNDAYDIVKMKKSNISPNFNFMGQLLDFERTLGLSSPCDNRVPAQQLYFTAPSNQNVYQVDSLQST
# [26] = target: T8, Dual specificity protein phosphatase 3 (Homo sapiens, UniProt P51452); assay: SAR VHR1 Fluorescent Assay for In Vitro dose response studies. [Related pubchem assays (depositor defined):AID1654, AID1661, AID1878, AID1992, AID2004, AID2070, AID2085]; format: functional
# [27] = target: T8, Dual specificity protein phosphatase 3; assay: MOA VHR1 Fluorescent secondary assay for identification of redox-state modulating compounds. [Related pubchem assays (depositor defined):AID1654, AID1661, AID1878, AID1957]
# [28] = target: T6, Tyrosine-protein phosphatase non-receptor type 7; assay: redox-active compounds inhibiting HePTP phosphatase – biochemical, fluorescence, mechanism study (AID 2068); format: functional
# [29] = target: T7, Dual specificity protein phosphatase 6; format: functional
# T8 sequence (P51452 whole entry): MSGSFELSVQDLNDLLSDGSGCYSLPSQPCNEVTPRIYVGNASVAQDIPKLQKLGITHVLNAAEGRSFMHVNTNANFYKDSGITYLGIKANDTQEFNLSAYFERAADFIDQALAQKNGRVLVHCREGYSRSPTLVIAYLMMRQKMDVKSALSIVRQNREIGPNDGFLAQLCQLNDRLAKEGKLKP
# T4 sequence (Q92731 whole entry): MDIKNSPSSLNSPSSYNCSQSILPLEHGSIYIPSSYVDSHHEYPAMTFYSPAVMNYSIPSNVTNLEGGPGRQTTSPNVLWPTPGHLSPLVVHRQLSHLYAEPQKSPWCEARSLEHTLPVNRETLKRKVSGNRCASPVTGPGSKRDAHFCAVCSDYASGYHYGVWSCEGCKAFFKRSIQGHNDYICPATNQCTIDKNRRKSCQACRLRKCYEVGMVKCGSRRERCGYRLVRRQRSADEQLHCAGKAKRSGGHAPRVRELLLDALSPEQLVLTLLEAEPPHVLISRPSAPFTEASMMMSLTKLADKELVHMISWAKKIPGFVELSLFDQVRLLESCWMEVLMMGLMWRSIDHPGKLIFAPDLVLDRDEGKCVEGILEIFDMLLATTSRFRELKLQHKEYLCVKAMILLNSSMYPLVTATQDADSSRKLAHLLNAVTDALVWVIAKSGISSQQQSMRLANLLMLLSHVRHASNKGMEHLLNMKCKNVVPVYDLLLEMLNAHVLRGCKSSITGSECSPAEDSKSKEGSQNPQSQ
# Sequence of FAD-linked sulfhydryl oxidase ALR (P55789 whole entry): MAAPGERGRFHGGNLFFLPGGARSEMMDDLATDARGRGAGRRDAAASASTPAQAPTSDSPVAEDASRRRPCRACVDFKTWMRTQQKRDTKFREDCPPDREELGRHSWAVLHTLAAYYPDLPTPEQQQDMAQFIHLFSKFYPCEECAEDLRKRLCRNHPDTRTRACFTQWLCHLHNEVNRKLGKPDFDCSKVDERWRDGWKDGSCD
# Sequence of Melanocortin receptor 4 (P32245 whole entry): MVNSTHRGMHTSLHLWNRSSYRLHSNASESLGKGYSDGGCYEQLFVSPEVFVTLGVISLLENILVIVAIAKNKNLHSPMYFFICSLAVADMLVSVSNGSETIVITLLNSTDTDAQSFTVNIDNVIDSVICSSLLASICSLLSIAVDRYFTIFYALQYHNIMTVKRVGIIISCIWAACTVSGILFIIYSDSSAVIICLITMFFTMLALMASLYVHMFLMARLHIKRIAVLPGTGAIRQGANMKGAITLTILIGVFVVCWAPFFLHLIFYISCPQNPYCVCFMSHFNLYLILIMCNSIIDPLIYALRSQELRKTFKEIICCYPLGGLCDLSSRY
# Sequence of Large T antigen (P03070 whole entry): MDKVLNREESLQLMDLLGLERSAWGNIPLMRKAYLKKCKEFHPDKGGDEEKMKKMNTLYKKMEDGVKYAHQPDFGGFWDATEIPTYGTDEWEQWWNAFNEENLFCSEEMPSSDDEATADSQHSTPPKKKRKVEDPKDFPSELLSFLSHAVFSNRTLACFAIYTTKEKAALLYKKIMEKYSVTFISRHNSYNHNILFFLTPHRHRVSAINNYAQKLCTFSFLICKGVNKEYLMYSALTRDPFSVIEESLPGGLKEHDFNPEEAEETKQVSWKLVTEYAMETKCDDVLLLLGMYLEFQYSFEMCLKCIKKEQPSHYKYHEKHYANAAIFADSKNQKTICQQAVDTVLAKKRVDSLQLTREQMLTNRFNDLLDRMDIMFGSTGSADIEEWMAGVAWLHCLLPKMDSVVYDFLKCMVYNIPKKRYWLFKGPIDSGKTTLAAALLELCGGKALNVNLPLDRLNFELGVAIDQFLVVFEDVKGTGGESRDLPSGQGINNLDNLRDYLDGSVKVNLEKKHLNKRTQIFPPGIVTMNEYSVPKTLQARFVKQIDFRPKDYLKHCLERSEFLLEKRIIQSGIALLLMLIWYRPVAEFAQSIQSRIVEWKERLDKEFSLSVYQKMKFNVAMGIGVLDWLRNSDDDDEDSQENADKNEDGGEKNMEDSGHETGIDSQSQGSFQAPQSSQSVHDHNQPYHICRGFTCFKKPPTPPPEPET
# Sequence of Neurotensin receptor type 1 (P30989 whole entry): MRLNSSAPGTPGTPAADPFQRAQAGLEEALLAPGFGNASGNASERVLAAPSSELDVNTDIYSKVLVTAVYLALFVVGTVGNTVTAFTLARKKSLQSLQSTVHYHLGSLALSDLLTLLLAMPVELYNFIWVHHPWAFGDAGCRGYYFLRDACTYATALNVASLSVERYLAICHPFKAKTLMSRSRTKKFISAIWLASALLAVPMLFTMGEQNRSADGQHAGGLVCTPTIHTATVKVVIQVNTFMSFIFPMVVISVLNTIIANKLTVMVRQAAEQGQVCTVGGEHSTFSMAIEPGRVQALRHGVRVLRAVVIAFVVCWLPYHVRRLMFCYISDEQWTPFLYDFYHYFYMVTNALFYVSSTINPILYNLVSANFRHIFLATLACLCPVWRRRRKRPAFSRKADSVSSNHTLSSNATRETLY
# Sequence of Melanin-concentrating hormone receptor 1 (Q99705 whole entry): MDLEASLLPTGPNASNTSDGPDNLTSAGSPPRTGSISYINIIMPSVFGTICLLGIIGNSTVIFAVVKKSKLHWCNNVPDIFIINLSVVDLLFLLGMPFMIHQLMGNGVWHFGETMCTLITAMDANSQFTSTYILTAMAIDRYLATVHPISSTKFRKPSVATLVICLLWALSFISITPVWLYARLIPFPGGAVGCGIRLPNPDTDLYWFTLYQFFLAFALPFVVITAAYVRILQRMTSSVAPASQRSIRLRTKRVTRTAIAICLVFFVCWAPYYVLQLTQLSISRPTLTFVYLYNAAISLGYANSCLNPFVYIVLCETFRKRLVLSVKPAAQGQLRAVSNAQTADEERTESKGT
# Sequence of Polyadenylate-binding protein 1 (P11940 whole entry): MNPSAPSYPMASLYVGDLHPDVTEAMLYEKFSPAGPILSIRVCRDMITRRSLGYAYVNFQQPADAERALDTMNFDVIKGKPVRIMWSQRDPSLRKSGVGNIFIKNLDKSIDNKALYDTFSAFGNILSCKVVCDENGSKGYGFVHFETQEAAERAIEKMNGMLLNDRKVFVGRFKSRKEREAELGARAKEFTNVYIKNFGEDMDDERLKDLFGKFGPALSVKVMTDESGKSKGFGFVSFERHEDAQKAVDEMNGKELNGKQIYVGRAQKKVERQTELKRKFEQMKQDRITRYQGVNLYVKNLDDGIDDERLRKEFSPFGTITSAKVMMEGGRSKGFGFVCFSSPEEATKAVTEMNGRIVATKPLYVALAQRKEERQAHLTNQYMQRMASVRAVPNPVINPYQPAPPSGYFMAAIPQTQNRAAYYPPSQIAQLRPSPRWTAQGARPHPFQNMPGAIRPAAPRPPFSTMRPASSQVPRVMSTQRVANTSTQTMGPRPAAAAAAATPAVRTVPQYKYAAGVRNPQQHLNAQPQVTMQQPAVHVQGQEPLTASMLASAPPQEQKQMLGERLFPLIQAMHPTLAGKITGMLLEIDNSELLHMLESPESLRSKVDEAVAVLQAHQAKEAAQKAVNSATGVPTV
# Sequence of Scavenger receptor class B member 1 (Q61009 whole entry): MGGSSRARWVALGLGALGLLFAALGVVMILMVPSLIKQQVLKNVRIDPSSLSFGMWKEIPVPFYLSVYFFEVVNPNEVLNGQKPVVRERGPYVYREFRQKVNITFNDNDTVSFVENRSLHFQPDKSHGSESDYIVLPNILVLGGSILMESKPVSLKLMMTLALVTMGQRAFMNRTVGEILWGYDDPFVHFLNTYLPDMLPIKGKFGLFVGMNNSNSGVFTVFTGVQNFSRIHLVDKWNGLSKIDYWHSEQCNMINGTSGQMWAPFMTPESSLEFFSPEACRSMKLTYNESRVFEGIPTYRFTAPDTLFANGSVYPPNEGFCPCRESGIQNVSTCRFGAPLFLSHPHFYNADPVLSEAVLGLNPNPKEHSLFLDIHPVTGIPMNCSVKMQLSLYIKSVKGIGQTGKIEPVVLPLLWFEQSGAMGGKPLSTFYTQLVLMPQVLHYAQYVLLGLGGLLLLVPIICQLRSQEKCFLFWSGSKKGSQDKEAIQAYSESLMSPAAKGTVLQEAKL
# Sequence of Glyceraldehyde-3-phosphate dehydrogenase (P04406 whole entry): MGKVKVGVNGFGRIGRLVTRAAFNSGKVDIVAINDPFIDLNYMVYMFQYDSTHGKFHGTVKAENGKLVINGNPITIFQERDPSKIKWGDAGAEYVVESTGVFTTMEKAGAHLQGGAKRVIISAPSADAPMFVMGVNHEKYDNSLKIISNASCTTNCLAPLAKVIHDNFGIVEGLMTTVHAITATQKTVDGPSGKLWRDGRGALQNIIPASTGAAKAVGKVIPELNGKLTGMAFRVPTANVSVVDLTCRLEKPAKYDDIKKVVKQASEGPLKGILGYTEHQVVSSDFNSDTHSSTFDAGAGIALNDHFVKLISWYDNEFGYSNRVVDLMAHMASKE
# Sequence of Neuropeptides B/W receptor type 1 (P48145 whole entry): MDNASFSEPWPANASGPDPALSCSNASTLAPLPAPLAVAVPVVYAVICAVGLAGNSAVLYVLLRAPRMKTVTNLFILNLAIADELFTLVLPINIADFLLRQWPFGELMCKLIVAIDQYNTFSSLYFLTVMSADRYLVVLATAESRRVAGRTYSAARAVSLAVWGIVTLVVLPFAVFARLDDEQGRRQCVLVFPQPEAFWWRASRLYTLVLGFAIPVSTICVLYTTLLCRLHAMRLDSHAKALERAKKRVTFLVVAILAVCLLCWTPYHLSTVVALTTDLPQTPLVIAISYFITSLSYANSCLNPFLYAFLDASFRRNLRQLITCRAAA
smiles,measurement,setting,value
Cc1cc(C)cc(OCC(O)CN2CCC(CN3C(=O)c4cccc5cccc(c45)C3=O)CC2)c1 (stereo not given),EC50,[1],1.82 µM (active)
same,EC50,[2],9.92 µM (active)
same,EC50,[3],18.6 µM (active)
same,AC50,INS1,5.59 µM (active)
same,EC50,Melanocortin receptor 4,> 89.2 µM (inactive)
same,AC50,[4],23.6 µM (active)
same,AC50,[5],7.63 µM (active)
same,AC50,[6],15.9 µM (active)
Oc1ccc(CCNc2c3ccccc3nc3ccccc23)cc1O,EC50,[7],> 300 µM (not active)
same,IC50,Aspartyl aminopeptidase,2.49 µM (active)
same,EC50,cells [8],> 350 µM (not active)
same,IC50,Procathepsin L,> 59.6 µM (not active)
same,EC50,[9],10.1 µM (active)
same,IC50,Large T antigen,8.41 µM (active)
same,EC50,cells [10],> 350 µM (not active)
same,AC50,[11],2.76 µM (active)
same,EC50,Mu-type opioid receptor,92.5 µM (inactive)
same,EC50,[12],76.1 µM (inactive)
same,AC50,[5],1.87 µM (active)
CCOc1ccc2[nH]c(=O)c(=O)[nH]c2c1,IC50,Bcl-2-like protein 10,> 50 µM (inactive)
same,IC50,Estrogen receptor beta [13],> 50 µM (not active)
same,IC50,Estrogen receptor beta [14],12.2 µM (not active)
COc1ccc(-c2nc(-c3ccc4c(c3)OCO4)[nH]c2-c2ccc(OC)cc2)cc1,EC50,[15],2.62 µM (active)
same,EC50,Streptokinase A,2.07 µM (active)
same,EC50,[16],16.7 µM (active)
same,EC50,[17],19.2 µM (active)
same,EC50,Streptococcus,> 150 µM (not active)
same,AC50,[18],18.1 µM (active)
COC(=O)c1ccc(Oc2nc(Nc3ccc(F)cc3)nc(N3CCCC3)n2)cc1,AC50,HeLa,289 µM (active)
CCc1ccc(NS(=O)(=O)c2ccc(C)c(C(=O)N3CCOCC3)c2)cc1,IC50,[19],> 100 µM (inactive)
same,IC50,[20],6.21 µM (active)
Clc1ccc(CN(Cc2ccc(Cl)cc2)c2nnn[nH]2)cc1,IC50,[21],> 14.6 µM (not active)
same,IC50,[22],> 14.6 µM (not active)
O=c1/c(=C/c2ccc(-c3cc(Cl)cc(Cl)c3)o2)sc2nc3cc(Br)cnc3n12,IC50,[23],> 100 µM (not active)
same,IC50,[24],> 100 µM (not active)
same,IC50,[25],> 100 µM (inactive)
same,IC50,[26],8.81 µM (active)
same,IC50,[27],2.23 µM (active)
same,IC50,[28],1.15 µM (active)
same,IC50,[29],> 100 µM (inactive)
